Experimental data: US8658666B2, “Substituted imidazoquinolines and imidazonaphthyridines” (3M Innovative Properties Company, priority 2005, dated 2014)
Where a name gives a salt, the structure may show the parent alone.

Row | SMILES | melting point [°C]
1 | CCOCc1nc2c(N)nc3cc(/C=C/Sc4ccccc4)ccc3c2n1CCCOC(C)C (as salt: hydrobromid) [Example 1, 2-Ethoxymethyl-1-(3-isopropoxypropyl)-7-[(E)-2-(phenylthio)ethenyl]-1H-imidazo[4,5-c]quinolin-4-amine] | 220 to 221
2 | CCOCc1nc2c(N)nc3cc(/C=C/S(=O)(=O)c4ccccc4)ccc3c2n1CCCOC(C)C [Example 2, 2-Ethoxymethyl-1-(3-isopropoxypropyl)-7-[(E)-2-(phenylsulfonyl)ethenyl]-1H-imidazo[4,5-c]quinolin-4-amine] | 188.5 to 190
3 | CCOCc1nc2c(N)nc3cc(NC(=O)C(C)C)ccc3c2n1CCCOC(C)C [Example 3, N-[4-Amino-2-ethoxymethyl-1-(3-isopropoxypropyl)-1H-imidazo[4,5-c]quinolin-7-yl]-2-methylpropanamide] | 214 to 215
4 | CCOCc1nc2c(N)nc3cc(NS(=O)(=O)CC)ccc3c2n1CC(C)(C)O [Example 4, N-[4-Amino-2-ethoxymethyl-1-(2-hydroxy-2-methylpropyl)-1H-imidazo[4,5-c]quinolin-7-yl]ethanesulfonamide] | 124 to 127
5 | CCOCc1nc2c(N)nc3cc(CCCCNC(C)=O)ccc3c2n1CCCOC(C)C [Example 5, N-{4-[4-Amino-2-ethoxymethyl-1-(3-isopropxypropyl)-1H-imidazo[4,5-c]quinolin-7-yl]butyl}acetamide] | 122 to 124
6 | CCCNC(=O)NCCCCc1ccc2c(c1)nc(N)c1nc(COCC)n(CCCOC(C)C)c12 [Example 6, N-{4-[4-Amino-2-ethoxymethyl-1-(3-isopropxypropyl)-1H-imidazo[4,5-c]quinolin-7-yl]butyl}-N′-propylurea] | 134.5 to 135.5
7 | CCOCc1nc2c(N)nc3cc(S(C)(=O)=O)ccc3c2n1CCCOC [Example 7, 2-Ethoxymethyl-1-(3-methoxypropyl)-7-methylsulfonyl-1H-imidazo[4,5-c]quinolin-4-amine] | 166.5 to 167.5
8 | CCCCc1nc2c(N)nc3cc(/C=C/C(=O)OC)ccc3c2n1CC(C)C [Example 8, Methyl(2E)-3-[4-amino-2-butyl-1-(2-methylpropyl)-1H-imidazo[4,5-c]quinolin-7-yl]prop-2-enoate] | 193 to 194
9 | CCOCc1nc2c(N)nc3cc(/C=C/C(=O)OC)ccc3c2n1CCCCN1CCCS1(=O)=O [Example 9, Methyl(2E)-3-[4-amino-1-[4-(1,1-dioxidoisothiazolidin-2-yl)butyl]-2-(ethoxymethyl)-1H-imidazo[4,5-c]quinolin-7-yl]prop-2-enoate] | 162 to 163
10 | CC(C)Cn1cnc2c(N)nc3ccc(CCCN4CCCC4=O)cc3c21 [Example 10, 1-{3-[4-Amino-1-(2-methylpropyl)-1H-imidazo[4,5-c]quinolin-8-yl]propyl}pyrrolidin-2-one] | 174 to 175
11 | CCOCc1nc2c(N)nc3cc(CCC(=O)N4CCOCC4)ccc3c2n1CC(C)(C)O [Example 14, 1-[4-Amino-2-(ethoxymethyl)-7-(3-morpholin-4-yl-3-oxopropyl)-1H-imidazo[4,5-c]quinolin-1-yl]-2-methylpropan-2-ol] | 118 to 119
12 | COC(=O)/C=C/c1ccc2c(c1)nc(N)c1ncn(CC(C)(C)O)c12 [Example 15, Methyl(2E)-3-[4-amino-1-(2-hydroxy-2-methylpropyl)-1H-imidazo[4,5-c]quinolin-7-yl]prop-2-enoate] | > 250
13 | COC(=O)CCc1ccc2c(c1)nc(N)c1ncn(CC(C)(C)O)c12 [Example 16, Methyl 3-[4-amino-1-(2-hydroxy-2-methylpropyl)-1H-imidazo[4,5-c]quinolin-7-yl]propanoate] | 201 to 205
14 | CCc1nc2c(N)nc3cc(/C=C/C(=O)OC)ccc3c2n1CC(C)(C)O [Example 17, Methyl(2E)-3-[4-amino-2-ethyl-1-(2-hydroxy-2-methylpropyl)-1H-imidazo[4,5-c]quinolin-7-yl]prop-2-enoate] | 238 to 240
15 | CC(C)Cn1cnc2c(N)nc3ccc(CCO)cc3c21 [Example 96, 2-(4-Amino-1-isobutyl-1H-imidazo[4,5-c]quinolin-8-yl)ethanol] | 214 to 216
16 | CC(C)(O)Cn1cnc2c(N)nc3cc(CCC(=O)N4CCOCC4)ccc3c21 [Example 97, 3-[4-Amino-1-(2-hydroxy-2-methylpropyl)-1H-imidazo[4,5-c]quinolin-7-yl]-1-(morpholin-4-yl)propan-1-one] | 217 to 218
17 | CCc1nc2c(N)nc3cc(CCC(=O)N4CCOCC4)ccc3c2n1CC(C)(C)O [Example 98, 3-[4-Amino-2-ethyl-1-(2-hydroxy-2-methylpropyl)-1H-imidazo[4,5-c]quinolin-7-yl]-1-(morpholin-4-yl)propan-1-one] | 237 to 239
18 | CC(C)(O)Cn1cnc2c(N)nc3cc(CCS(C)(=O)=O)ccc3c21 [Example 99] | 269 to 271
19 | CCc1nc2c(N)nc3cc(CCC(=O)N(C)C)ccc3c2n1CC(C)(C)O [Example 100, 3-[4-Amino-2-ethyl-1-(2-hydroxy-2-methylpropyl)-1H-imidazo[4,5-c]quinolin-7-yl]-N,N-dimethylpropanamide] | 234 to 237
20 | COCCc1nc2c(N)nc3ccc(CCC(=O)N4CCOCC4)cc3c2n1CCCN1CCCC1=O [Example 101, 1-{3-[4-Amino-2-(2-methoxyethyl)-8-(3-morpholin-4-yl-3-oxo-propyl)-1H-imidazo[4,5-c]quinolin-1-yl]propyl}pyrrolidin-2-one] | 168 to 170
21 | COCCc1nc2c(N)nc3ccc(CCC(=O)N(C)C)cc3c2n1CCCN1CCCC1=O [Example 102, 3-{4-Amino-2-(2-methoxyethyl)-1-[3-(2-oxo-pyrrolidin-1-yl)propyl]-1H-imidazo[4,5-c]quinolin-8-yl}-N,N-dimethylpropanamide] | 184 to 186
22 | CCc1nc2c(N)nc3cc(CCC(=O)N4CCSC4)ccc3c2n1CC(C)(C)O [Example 103, 1-{4-Amino-2-ethyl-7-[3-oxo-3-(1,3-thiazolidin-3-yl)propyl]-1H-imidazo[4,5-c]quinolin-1-yl}-2-methylpropan-2-ol] | 210 to 212
23 | COCc1nc2c(N)nc3cc(CCS(C)(=O)=O)ccc3c2n1CC(C)(C)O [Example 104, 1-{4-Amino-2-(methoxymethyl)-7-[2-(methylsulfonyl)ethyl]-1H-imidazo[4,5-c]quinolin-1-yl}-2-methylpropan-2-ol] | 210 to 212
24 | CC(C)(O)Cn1c(CO)nc2c(N)nc3cc(CCS(C)(=O)=O)ccc3c21 [Example 105, 1-{4-Amino-2-(hydroxymethyl)-7-[2-(methylsulfonyl)ethyl]-1H-imidazo[4,5-c]quinolin-1-yl}-2-methylpropan-2-ol] | 221 to 223
25 | COCc1nc2c(N)nc3cc(CCC(=O)N4CCOCC4)ccc3c2n1CC(C)(C)O [Example 106, 1-[4-Amino-2-(methoxymethyl)-7-(3-morpholin-4-yl-3-oxopropyl)-IH-imidazo[4,5-c]quinolin-1-yl]-2-methylpropan-2-ol] | 215 to 217
